Measured values taken from ChEMBL document CHEMBL1201862, “PubChem BioAssay data set” (2004).
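Briefly, cells in 96-well plates were exposed to five compound concentrations for 48 h, and endpoints were estimated by linear interpolation. Abbreviation: GI50, concentration required for 50% inhibition of growth.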 Active and inactive are the calls of the source. No stated cut-off is given here; in the data, active = GI50 up to about 1.1 µM and inactive = higher.

Experiments:
Experiment in all cases: DTP human tumour cell line panel, 48 h
CAKI-1 = test system: CAKI-1
COLO 205 = test system: COLO 205
DLD-1 = test system: DLD-1
HOP-62 = test system: HOP-62
HT-29 = test system: HT-29
IGROV-1 = test system: IGROV-1
KM-20L2 = test system: KM-20L2
KM12 = test system: KM12
NCI-H460 = test system: NCI-H460
NCI-H522 = test system: NCI-H522
OVCAR-3 = test system: OVCAR-3
OVCAR-4 = test system: OVCAR-4
OVCAR-8 = test system: OVCAR-8
U-251 = test system: U-251
UO-31 = test system: UO-31
CCRF-CEM = test system: CCRF-CEM
EKVX = test system: EKVX
RXF 393 = test system: RXF 393
MCF7 = test system: MCF7

Measured: GI50

O=[N+]([O-])c1ccc(-c2ccc(-c3csc(Nc4ccccn4)n3)o2)cc1
inactive: CAKI-1 > 100 µM | COLO 205 > 100 µM | DLD-1 > 100 µM | HOP-62 31.2 µM | HT-29 > 100 µM | IGROV-1 > 100 µM | KM-20L2 > 100 µM | KM12 49.5 µM | NCI-H460 > 10 µM | NCI-H522 > 100 µM | OVCAR-3 > 100 µM | OVCAR-4 4.76 µM | OVCAR-8 64.7 µM | U-251 13.8 µM | UO-31 > 100 µM

CCN1C(=O)N2C(OC)c3ccccc3C(Br)C2(OC)C1=O (stereo not drawn)
inactive: CAKI-1 > 100 µM | CCRF-CEM > 100 µM | COLO 205 > 100 µM | DLD-1 > 100 µM | HOP-62 > 100 µM | IGROV-1 > 100 µM | KM-20L2 > 100 µM | KM12 > 100 µM | NCI-H460 > 100 µM | NCI-H522 > 100 µM | OVCAR-3 > 100 µM | OVCAR-4 > 100 µM | OVCAR-8 > 100 µM | U-251 > 100 µM | UO-31 > 100 µM

O=C(Nc1ccccc1-c1n[nH]c(S)nc1=O)C(F)(F)F
inactive: CAKI-1 > 100 µM | CCRF-CEM > 100 µM | COLO 205 > 100 µM | DLD-1 > 100 µM | EKVX > 100 µM | HOP-62 > 100 µM | HT-29 > 100 µM | IGROV-1 > 100 µM | KM12 > 100 µM | NCI-H460 > 100 µM | NCI-H522 64.3 µM | OVCAR-3 > 100 µM | OVCAR-4 > 100 µM | OVCAR-8 > 100 µM | RXF 393 > 100 µM | U-251 > 100 µM | UO-31 > 100 µM

Cn1c(=O)c2c(nc3n2C(CCl)CO3)n(C)c1=O (stereo not drawn)
inactive: CAKI-1 > 100 µM | CCRF-CEM > 100 µM | COLO 205 > 100 µM | DLD-1 > 100 µM | EKVX > 100 µM | HOP-62 > 100 µM | HT-29 > 100 µM | IGROV-1 > 100 µM | KM12 > 100 µM | NCI-H460 > 100 µM | NCI-H522 > 100 µM | OVCAR-3 > 100 µM | OVCAR-4 > 100 µM | OVCAR-8 > 100 µM | U-251 > 100 µM | UO-31 > 100 µM

CC(C)(C)c1ccc(OCCOCCOc2ccc(C(C)(C)C)cc2S(N)(=O)=O)c(S(N)(=O)=O)c1
inactive: CAKI-1 > 100 µM | CCRF-CEM > 100 µM | COLO 205 > 100 µM | DLD-1 99.5 µM | EKVX > 100 µM | HOP-62 > 100 µM | HT-29 6.84 µM | IGROV-1 > 100 µM | KM12 52.1 µM | NCI-H460 34.9 µM | OVCAR-3 > 100 µM | OVCAR-4 > 100 µM | OVCAR-8 > 100 µM | RXF 393 20.2 µM | U-251 > 100 µM | UO-31 5.85 µM

O=c1[nH]c(-c2ccc([N+](=O)[O-])cc2)nc2ccc(Cl)cc12
inactive: COLO 205 > 100 µM | EKVX > 100 µM | HT-29 > 100 µM | IGROV-1 55.3 µM | KM-20L2 > 100 µM | KM12 > 100 µM | OVCAR-8 > 100 µM | RXF 393 78.3 µM | U-251 54.6 µM | UO-31 > 100 µM

CC1(C)OC2C(CO)OC(N/C(=N/C#N)Oc3ccccc3)C2O1 (stereo not drawn)
inactive: CCRF-CEM > 100 µM | COLO 205 > 100 µM | DLD-1 > 100 µM | EKVX > 100 µM | HOP-62 > 100 µM | HT-29 > 100 µM | IGROV-1 > 100 µM | KM-20L2 > 100 µM | KM12 > 100 µM | NCI-H460 > 100 µM | OVCAR-3 > 100 µM | OVCAR-4 > 100 µM | OVCAR-8 > 100 µM | RXF 393 > 100 µM | U-251 > 100 µM | UO-31 > 100 µM

Cn1c(=O)c2ccccc2c2nc3ccccc3nc21
inactive: COLO 205 > 100 µM | EKVX > 100 µM | HT-29 > 100 µM | IGROV-1 > 100 µM | KM-20L2 > 100 µM | KM12 > 100 µM | OVCAR-8 > 100 µM | RXF 393 > 100 µM | U-251 > 100 µM | UO-31 > 100 µM

C/C(CC(=O)Nc1cc(Cl)c(Cl)cc1Cl)=N\NC(N)=O
inactive: CCRF-CEM > 100 µM | COLO 205 > 100 µM | DLD-1 > 100 µM | EKVX > 100 µM | HOP-62 > 100 µM | HT-29 > 100 µM | IGROV-1 > 100 µM | KM-20L2 > 100 µM | KM12 > 100 µM | NCI-H522 28.1 µM | OVCAR-3 > 100 µM | OVCAR-8 > 100 µM | RXF 393 61.7 µM | U-251 > 100 µM | UO-31 > 100 µM

C/C(=N\NC(=O)C(N)=O)c1c(O)cc(C)oc1=O
inactive: CCRF-CEM > 100 µM | DLD-1 > 100 µM | EKVX > 100 µM | HOP-62 > 100 µM | HT-29 > 100 µM | IGROV-1 > 100 µM | KM-20L2 > 100 µM | KM12 > 100 µM | NCI-H460 > 100 µM | OVCAR-4 > 100 µM | OVCAR-8 > 100 µM | U-251 > 100 µM | UO-31 > 100 µM

O=C(Nc1ccn(CCOC(=O)c2ccccc2)c(=O)n1)c1ccccc1
inactive: CAKI-1 > 100 µM | CCRF-CEM > 100 µM | COLO 205 > 100 µM | EKVX > 100 µM | HOP-62 > 100 µM | HT-29 > 100 µM | IGROV-1 > 100 µM | KM-20L2 > 100 µM | KM12 > 100 µM | NCI-H460 > 100 µM | NCI-H522 > 100 µM | OVCAR-3 > 100 µM | OVCAR-4 > 100 µM | OVCAR-8 > 100 µM | RXF 393 > 100 µM | U-251 > 100 µM | UO-31 > 100 µM

CC1CCC2(CC1)NN=c1s/c(=C\c3ccc(O)cc3)c(=O)n1N2 (stereo not drawn)
inactive: CCRF-CEM > 100 µM | COLO 205 > 100 µM | DLD-1 > 100 µM | EKVX > 100 µM | HOP-62 > 100 µM | HT-29 > 100 µM | IGROV-1 > 100 µM | KM-20L2 > 100 µM | KM12 > 100 µM | NCI-H460 > 100 µM | NCI-H522 > 100 µM | OVCAR-3 > 100 µM | OVCAR-4 > 100 µM | OVCAR-8 > 100 µM | RXF 393 > 100 µM | U-251 > 100 µM

O=[N+]([O-])c1ccc(/C=C/c2ccc(/N=N/c3ccc(/C=C/c4ccc([N+](=O)[O-])cc4S(=O)(=O)O)c(S(=O)(=O)O)c3)cc2S(=O)(=O)O)c(S(=O)(=O)O)c1
inactive: CCRF-CEM > 100 µM | COLO 205 > 100 µM | DLD-1 > 100 µM | EKVX > 100 µM | HOP-62 > 100 µM | HT-29 > 100 µM | IGROV-1 > 100 µM | KM12 > 100 µM | MCF7 > 100 µM | NCI-H460 > 100 µM | NCI-H522 > 100 µM | OVCAR-3 > 87.5 µM | OVCAR-4 > 56.8 µM | OVCAR-8 > 100 µM | RXF 393 > 100 µM | U-251 > 100 µM | UO-31 > 100 µM
